Columns and labels:
[1] = test system: CB-iPSC6.2-derived retinal cups (RCs); assay: Retinoic acid treatment of hiPSC-derived retinal cups, rod-opsin expression by immunohistochemistry; type: cell-based, human; conditions: for rod-opsin expression (qualitative, microscopic observation): 3 independent experiments
Description: (§1) To promote photoreceptor maturation, suspension cultures of RCs were supplemented daily with 1 μM all-trans retinoic acid (RA; Sigma) at various time windows: W7-W17; W7-W14 or W10-W14; subsequently, RA concentration was decreased to 0.5 μM.
(§2) RCs were fixed in 4% PFA for 30 min. […] DAPI was used for nuclear counterstaining (Molecular Probes).

[2] = test system: KA.1- and IMR90-4-derived RCs; assay: as above; type: cell-based, human; conditions: RA treatment in W10-W14
Description: as §1, §2

CC1=C(/C=C/C(C)=C/C=C/C(C)=C/C(=O)O)C(C)(C)CCC1 [retinoic acid, all-trans retinoic acid]
rod-opsin expression (qualitative, microscopic observation) ([1]; 1 μM RA during W10-W14, W17 and W21): dispersed cells with strong rod-opsin expression in their cell bodies already at W17 | rod-opsin expression (qualitative, microscopic observation) ([1]; 1 μM RA in W7-W14): low levels of rod-opsin expression in the distal part of photoreceptor cells | retinal cups showing dispersed cells with higher rod-opsin expression, also in cell bodies ([1]; 1 μM retinoic acid W10-W14, evaluated at W17, n=8): ~50% | retinal cups showing a significant increase in the number of photoreceptors expressing rod opsin ([1]; 1 μM retinoic acid W10-W14, evaluated by W21, n=20): 90% | rod-opsin expression (qualitative, microscopic observation) [2]: induction of rod-opsin expression was also observed, although at a later time and less efficiently than in CB-iPSC6.2-derived RCs

From US11981919B2, “Methods for forming three-dimensional human retinal tissue in vitro” (THE JOHNS HOPKINS UNIVERSITY, priority 2014, dated 2024)
